Patent US20190359645A1, “2'3'-CYCLIC DINUCLEOTIDES COMPRISING CARBOCYCLIC NUCLEOTIDE” (Institute of Organic Chemistry and Biochemistry ASCR, V.V.I., priority 2018, published 2019)

Assays:
WT STING [1] = target: T1, WT STING (Homo sapiens, UniProt Q86WV6, H232R); assay: Digitonin assay using 293T wtSTING-FL reporter cells; type: cell-based; set-up: host or cells: 293T (ATCC CRL-3216), stably transfected; also carries the 4xISRE firefly luciferase reporter; conditions: 293T wtSTING-FL cells, digitonin buffer 30 min, then 5 h, ISRE firefly luciferase reporter; read-out: Digitonin assay EC50 WT STING
Excerpt: (§1) Two complementary oligonucleotides of the sequence […] […] […] […] (SEQ ID NO: 1) and […] […] (SEQ ID NO:2) containing four interferon-sensitive response elements (ISRE) were synthesized by Sigma Aldrich (Czech Republic, Prague). The oligonucleotides were mixed in equal molar amounts, hybridized, and cleaved by restriction endonucleases HindIII (cat. #. R^0104S, NEB, Ipswich, USA) and BglII (cat. # R^0144S, NEB, Ipswich, USA). Ultimately, they were ligated into plasmid pGL4.27 (cat. # E6651, Promega, Madison, USA) linearized with the same enzymes. As a result, the sequence with four ISRE sites was placed upstream of the minimum promoter of firefly luciferase reporter gene.
293T cells (cat. # CRL-3216, ATCC, Manassas, USA) were seeded a day before transfection at density 125,000 cells per cm^2 onto poly-D-lysine (cat. # P6407, Sigma Aldrich, Czech Republic) coated six well plates in antibiotic free DMEM with high glucose (cat. # D5796, Sigma Aldrich, Czech Republic) supplemented with 10% heat inactivated FBS (cat. # S1520, Biowest, Riverside, USA). On the day of transfection, 2.5 μg of the plasmid pUNO1-hSTING-WT (cat. # punol-hstingwt, InvivoGen, San Diego, USA,) encoding human wild type STING (WT STING) was diluted in 125 μL OptiMEM medium (cat. #31985062, ThermoFisher, Waltham, USA) and mixed with 125 μL of the same medium containing 12.5 μL of Lipofectamine 2000 (cat. #11668019, ThermoFisher, Waltham, USA). After 5 minutes incubation at room temperature (RT), 250 μL of the mixture was added dropwise to the cells in one well. Cells were incubated 36 hours at 37° C. with 5% CO2, and then detached with 0.05% Trypsin and 0.22 g/L EDTA (both cat. # L0941, Biowest, Riverside, USA).
Transfected cells were seeded onto poly-D-lysine coated six well plates at density 50,000 cells per 1 cm^2 in DMEM medium with high glucose containing 10% heat inactivated FBS, […] blasticidin (cat. # ant-bl-05, InvivoGen, San Diego, USA), 0.06 mg/ml Penicillin G and 0.1 mg/ml Streptomycin Sulfate (both cat. #. L0018, Biowest, Riverside, USA). The medium was replenished every 3-4 days until visible colonies of cells resistant to blasticidin were formed.
Blasticidin resistant cells stably expressing WT STING were further transfected with […] plasmid following the same procedure as described above. The transfected cells were selected for the resistance to 300 μg/mL hygromycin (cat. #. 10687010, ThermoFisher, Waltham, USA) in DMEM with high glucose containing 10% heat inactivated FBS, […] blasticidin, 0.06 mg/ml Penicillin G and 0.1 mg/ml Streptomycin Sulfate. Homogeneous culture of stably double transfected cells was prepared by limiting dilution of cells in 96 well plates and wells with cells were selected that originated from a single cell. These cells were expanded, and expression of WT STING was confirmed by western blot using monoclonal mouse anti STING antibodies (cat. #. MAB7169, 1:1000 dilution; […] cat. #. HAF007, 1:2000 dilution, both from R&D Systems, Minneapolis, USA), and by induction of firefly luciferase expression in the presence of 50 μM STING agonist 2′3′ cGAMP (cat. # tlrl-nacga23, InvivoGen, San Diego, USA). Genomic DNA from the transfected cells was amplified with primers pUNO1_Seq_F ([…]) (SEQ ID NO:3) and pUNO1_Seq_R ([…]) (SEQ ID NO:4) that were complementary to pUNO1 plasmid and the presence of WT STING gene in the transfected cells was confirmed by DNA sequencing.
293T wtSTING-FL cells were seeded at density of 250,000 cells per cm^2 onto 96 well poly-D-lysine coated plates in 100 μl DMEM with high glucose supplemented with 10% heat inactivated FBS. […]

WT STING [2] = target: T1, WT STING; assay: 293T wt STING reporter assay; type: cell-based; set-up: host or cells: 293T (ATCC CRL-3216), stably transfected; also carries the 4xISRE firefly luciferase reporter; conditions: 293T wtSTING-FL cells, no digitonin, 7 h incubation, ISRE firefly luciferase reporter
Excerpt: as §1
293T cells (cat. # CRL-3216, ATCC, Manassas, USA) were seeded a day before transfection at density 125,000 cells per cm^2 onto poly-D-lysine (cat. # P6407, Sigma Aldrich, Czech Republic) coated six well plates in antibiotic free DMEM with high glucose (cat. # D5796, Sigma Aldrich, Czech Republic) supplemented with 10% heat inactivated FBS (cat. # S1520, Biowest, Riverside, USA). […]

T1 sequence (Q86WV6 whole entry H232R): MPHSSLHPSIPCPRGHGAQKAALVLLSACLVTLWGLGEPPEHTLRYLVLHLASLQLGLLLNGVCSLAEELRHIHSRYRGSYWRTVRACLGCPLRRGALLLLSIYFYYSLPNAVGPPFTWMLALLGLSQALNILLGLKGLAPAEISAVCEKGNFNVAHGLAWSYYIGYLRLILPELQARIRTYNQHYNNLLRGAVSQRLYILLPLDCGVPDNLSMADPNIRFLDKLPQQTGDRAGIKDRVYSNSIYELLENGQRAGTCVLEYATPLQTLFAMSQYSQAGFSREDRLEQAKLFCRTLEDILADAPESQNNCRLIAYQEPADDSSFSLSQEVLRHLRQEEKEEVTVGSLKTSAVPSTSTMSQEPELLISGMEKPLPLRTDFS

Structure (SMILES)	EC50 (WT STING [1]) [nM]	EC50 (WT STING [2]) [nM]
CSc1ncnc2c1ncn2[C@@H]1O[C@@H]2COP(=O)(O)OC3C(O)[C@@H](COP(=O)(O)OC2C1O)C[C@H]3n1cnc2c(=O)[nH]cnc21 (stereo partly drawn) [Compound 125, (1S,6R,8R,9R,10S,15R,17R,18R)-3,9,12,18-tetrahydroxy-8-[16-(methylsulfanyl)-9H-purin-9-yl]-17-(6-oxo-6,9-dihydro-1H-purin-9-yl)-2,4,7,11,13-pentaoxa-3λ^5,12λ^5-diphosphatricyclo[13.2.1.0^6,10]octadecane-3,12-dione]	210	–
Nc1ncc2ncn([C@@H]3O[C@@H]4COP(=O)(O)OC5C(O)[C@@H](COP(=O)(O)OC4C3O)C[C@H]5n3cnc4c(=O)[nH]c(N)nc43)c2n1 (stereo partly drawn) [Compound 106, (6R,8R,15R,17R)-17-(2-amino-6-oxo-6,9-dihydro-1H-purin-9-yl)-8-(2-amino-9H-purin-9-yl)-3,9,12,18-tetrahydroxy-2,4,7,11,13-pentaoxa-3λ^5,12λ^5-diphosphatricyclo[13.2.1.0^6,10]octadecane-3,12-dione]	200	–
Nc1nc2c(ncn2[C@@H]2C[C@@H]3COP(=O)(S)OC4C(O)[C@H](n5cnc6c(N)ncnc65)O[C@@H]4COP(=O)(O)OC2C3O)c(=O)[nH]1 (stereo partly drawn) [Compound 118, (6R,8R,15R,17R)-17-(2-amino-6-oxo-6,9-dihydro-1H-purin-9-yl)-8-(6-amino-9H-purin-9-yl)-3,9,18-trihydroxy-12-sulfanyl-2,4,7,11,13-pentaoxa-3λ^5,12λ^5-diphosphatricyclo[13.2.1.0^6,10]octadecane-3,12-dione]	130	–
Nc1nc2c(ncn2[C@@H]2C[C@@H]3COP(=O)(O)OC4C(O)[C@H](n5cnc6c(N)nc(F)nc65)O[C@@H]4COP(=O)(O)OC2C3O)c(=O)[nH]1 (stereo partly drawn) [Compound 103, (6R,8R,15R,17R)-8-(6-amino-2-fluoro-9H-purin-9-yl)-17-(2-amino-6-oxo-6,9-dihydro-1H-purin-9-yl)-3,9,12,18-tetrahydroxy-2,4,7,11,13-pentaoxa-3λ^5,12λ^5-diphosphatricyclo[13.2.1.0^6,10]octadecane-3,12-dione]	1500	–
Nc1nc2c(ncn2[C@@H]2C[C@@H]3COP(=O)(O)OC4C(O)[C@H](n5cnc6c(S)ncnc65)O[C@@H]4COP(=O)(O)OC2C3O)c(=O)[nH]1 (stereo partly drawn) [Compound 107, (6R,8R,15R,17R)-17-(2-amino-6-oxo-6,9-dihydro-1H-purin-9-yl)-3,9,12,18-tetrahydroxy-8-(6-sulfanyl-9H-purin-9-yl)-2,4,7,11,13-pentaoxa-3λ^5,12λ^5-diphosphatricyclo[13.2.1.0^6,10]octadecane-3,12-dione]	6400	–
Cc1cn([C@@H]2O[C@@H]3COP(=O)(O)OC4C(O)[C@@H](COP(=O)(O)OC3C2O)C[C@H]4n2cnc3c(=O)[nH]cnc32)c2ncnc(N)c12 (stereo partly drawn) [Compound 123, (6R,8R,15R,17R)-8-{4-amino-5-methyl-7H-pyrrolo[2,3-d]pyrimidin-7-yl}-3,9,12,18-tetrahydroxy-17-(6-oxo-6,9-dihydro-1H-purin-9-yl)-2,4,7,11,13-pentaoxa-3λ^5,12λ^5-diphosphatricyclo[13.2.1.0^6,10]octadecane-3,12-dione]	300	–

Other lines, results leading:

EC50 (WT STING [1]) [nM]	EC50 (WT STING [2]) [nM]	Structure (SMILES)
20	500	Nc1ncnc2c1ncn2[C@@H]1O[C@@H]2COP(=O)(S)O[C@@H]3[C@H](F)[C@@H](COP(=O)(S)O[C@H]2[C@H]1F)C[C@H]3n1cnc2c(=O)[nH]cnc21 (single isomer, unassigned) [Compound 128d]
40	11000	Nc1ncnc2c1ncn2[C@@H]1O[C@@H]2COP(=O)(S)O[C@@H]3[C@H](F)[C@@H](COP(=O)(S)O[C@H]2[C@H]1F)C[C@H]3n1cnc2c(=O)[nH]cnc21 (single isomer, unassigned) [Compound 128a]
30	–	Nc1ncnc2c1ncn2[C@@H]1O[C@@H]2COP(=O)(O)O[C@@H]3[C@H](F)[C@@H](COP(=O)(O)O[C@H]2[C@H]1F)C[C@H]3n1cnc2c(=O)[nH]cnc21 [Compound 127]
